pIC50: −log10 of the molar value. Like-named read-outs stand apart in the source and are kept apart here.
Key:
[1] = test system: MV4;11 cells; assay: Cell viability assay (CellTiter-Glo) in MV4;11 cells, alone or with gilteritinib; assay type: cell-based; conditions: MV4;11 cells, three days, CellTiter-Glo, read-out: MV4
[2] = test system: MOLM-13 cells; assay: Cell viability assay (CellTiter-Glo) in MOLM-13 cells, alone or with gilteritinib; assay type: cell-based; conditions: MOLM-13 cells, three days, CellTiter-Glo
[3] = Homo sapiens, MV4-11, 72 h, compound alone (without gilteritinib), 11 IC50
[4] = Homo sapiens, MV4-11, 72 h, compound with gilteritinib 10 nM, 11 IC50 gilteritinib
[5] = Homo sapiens, MOLM-13, 72 h, compound alone (without gilteritinib), read-out: MOLM-13 IC50
[6] = Homo sapiens, MOLM-13, 72 h, compound with gilteritinib 20 nM, read-out: MOLM-13 IC50 gilteritinib
[7] = Homo sapiens, 72 h, compound alone (without gilteritinib), 11 IC50
[8] = Homo sapiens, 72 h, compound with gilteritinib 10 nM, 11 IC50 gilteritinib
[9] = Homo sapiens, 72 h, compound alone (without gilteritinib), read-out: MOLM-13 IC50
[10] = Homo sapiens, 72 h, compound with gilteritinib 20 nM, read-out: MOLM-13 IC50 gilteritinib

Structure (SMILES)	pIC50 [1, 3]	pIC50 [1, 4]	pIC50 [2, 5]	pIC50 [2, 6]	pIC50 ([1]; compound with gilteritinib 10 nM, 11 IC50 gilteritinib)	pIC50 ([2]; compound alone (without gilteritinib), read-out: MOLM-13 IC50)	pIC50 [1, 7]	pIC50 [1, 8]	pIC50 [2, 9]	pIC50 [2, 10]
O=C1CCC(N2C(=O)c3ccc(NC[C@H]4C[C@H](n5ccc(C6CC6)n5)C4)cc3C2=O)C(=O)N1 (stereo partly drawn) [GS-588, 5-(((trans-3-(3-Cyclopropyl-1H-pyrazol-1-yl)cyclobutyl)methyl)amino)-2-(2,6-dioxopiperidin-3-yl)isoindoline-1,3-dione]	< 6.00	< 6.00	7.00 to 8.00	6.00 to 7.00						
O=C1CCC(N2C(=O)c3ccc(NC[C@H]4C[C@H](n5nccc5C5CC5)C4)cc3C2=O)C(=O)N1 (stereo partly drawn) [GS-590, 5-(((trans-3-(5-cyclopropyl-1H-pyrazol-1-yl)cyclobutyl)methyl)amino)-2-(2,6-dioxopiperidin-3-yl)isoindoline-1,3-dione]	< 6.00	6.00 to 7.00	> 8.00	6.00 to 7.00						
O=C1CCC(N2C(=O)c3ccc(NCCC[C@H]4C[C@H](n5ccc(C6CC6)n5)C4)cc3C2=O)C(=O)N1 (stereo partly drawn) [GS-591, 5-((3-(trans-3-(3-Cyclopropyl-1H-pyrazol-1-yl)cyclobutyl)propyl)amino)-2-(2,6-dioxopiperidin-3-yl)isoindoline-1,3-dione]	< 6.00	6.00 to 7.00	< 6.00	6.00 to 7.00						
O=C1CCC(N2C(=O)c3ccc(NC[C@H]4C[C@H](n5cc(-c6cccnn6)c(C6CC6)n5)C4)cc3C2=O)C(=O)N1 (stereo partly drawn) [GS-597, 5-(((trans-3-(3-Cyclopropyl-4-(pyridazin-3-yl)-1H-pyrazol-1-yl)cyclobutyl)methyl)amino)-2-(2,6-dioxopiperidin-3-yl)isoindoline-1,3-dione]	7.00 to 8.00	< 6.00	< 6.00	6.00 to 7.00						
O=C1CCC(N2C(=O)c3ccc(NC[C@H]4C[C@H](n5cc(-c6ccccc6)c(C6CC6)n5)C4)cc3C2=O)C(=O)N1 (stereo partly drawn) [GS-598, 5-(((trans-3-(3-Cyclopropyl-4-phenyl-1H-pyrazol-1-yl)cyclobutyl)methyl)amino)-2-(2,6-dioxopiperidin-3-yl)isoindoline-1,3-dione]							7.00 to 8.00	> 8.00	6.00 to 7.00	7.00 to 8.00
O=C1CCC(N2C(=O)c3ccc(NC[C@H]4C[C@H](n5cc(-c6ncccn6)c(C6CC6)n5)C4)cc3C2=O)C(=O)N1 (stereo partly drawn) [GS-599, 5-(((trans-3-(3-Cyclopropyl-4-(pyrimidin-2-yl)-1H-pyrazol-1-yl)cyclobutyl)methyl)amino)-2-(2,6-dioxopiperidin-3-yl)isoindoline-1,3-dione]	6.00 to 7.00	7.00 to 8.00	6.00 to 7.00	6.00 to 7.00						
O=C1CCC(N2C(=O)c3ccc(NC[C@H]4C[C@H](n5cc(-c6ccncn6)c(C6CC6)n5)C4)cc3C2=O)C(=O)N1 (stereo partly drawn) [GS-601, 5-(((trans-3-(3-Cyclopropyl-4-(pyrimidin-4-yl)-1H-pyrazol-1-yl)cyclobutyl)methyl)amino)-2-(2,6-dioxopiperidin-3-yl)isoindoline-1,3-dione]							7.00 to 8.00	< 6.00	< 6.00	7.00 to 8.00
Cc1cccnc1-c1cnn([C@H]2C[C@H](CCCNc3ccc4c(c3)C(=O)N(C3CCC(=O)NC3=O)C4=O)C2)c1 (stereo partly drawn) [GS-602, 2-(2,6-Dioxopiperidin-3-yl)-5-((3-(trans-3-(4-(3-methylpyridin-2-yl)-1H-pyrazol-1-yl)cyclobutyl)propyl)amino)isoindoline-1,3-dione]	7.00 to 8.00	> 8.00	6.00 to 7.00	7.00 to 8.00						
Cc1ccnc(-c2cnn([C@H]3C[C@H](CCCNc4ccc5c(c4)C(=O)N(C4CCC(=O)NC4=O)C5=O)C3)c2)c1 (stereo partly drawn) [GS-603, 2-(2,6-Dioxopiperidin-3-yl)-5-((3-(trans-3-(4-(4-methylpyridin-2-yl)-1H-pyrazol-1-yl)cyclobutyl)propyl)amino)isoindoline-1,3-dione]	7.00 to 8.00	> 8.00	6.00 to 7.00	7.00 to 8.00						
O=C1CCC(N2C(=O)c3ccc(NC[C@H]4C[C@H](n5cc(-c6ncccc6N6CCNCC6)c(C6CC6)n5)C4)cc3C2=O)C(=O)N1 (stereo partly drawn) [GS-604, 5-(((trans-3-(3-cyclopropyl-4-(3-(piperazin-1-yl)pyridin-2-yl)-1H-pyrazol-1-yl)cyclobutyl)methyl)amino)-2-(2,6-dioxopiperidin-3-yl)isoindoline-1,3-dione]	7.00 to 8.00	> 8.00	7.00 to 8.00	> 8.00						

Continued, in another order:

pIC50 [1, 3]	pIC50 [1, 4]	pIC50 [2, 5]	pIC50 [2, 6]	pIC50 ([1]; compound with gilteritinib 10 nM, 11 IC50 gilteritinib)	pIC50 ([2]; compound alone (without gilteritinib), read-out: MOLM-13 IC50)	Structure (SMILES)	pIC50 [1, 7]	pIC50 [1, 8]	pIC50 [2, 9]	pIC50 [2, 10]
7.00 to 8.00	> 8.00	7.00 to 8.00	> 8.00			O=C1CCC(N2C(=O)c3ccc(NCCC[C@H]4C[C@H](n5cc(-c6cnc7ccc(NC8COC8)cc7n6)cn5)C4)cc3C2=O)C(=O)N1 (stereo partly drawn) [GS-585, 2-(2,6-Dioxopiperidin-3-yl)-5-((3-(trans-3-(4-(7-(oxetan-3-ylamino)quinoxalin-2-yl)-1H-pyrazol-1-yl)cyclobutyl)propyl)amino)isoindoline-1,3-dione]				
7.00 to 8.00	> 8.00	7.00 to 8.00	> 8.00			O=C1CCC(N2C(=O)c3ccc(NCCC[C@H]4C[C@@H](n5cc(-c6cnc7cc(NC8COC8)ccc7n6)c(C6CC6)n5)C4)cc3C2=O)C(=O)N1 (stereo partly drawn) [GS-586, 5-((3-(Cis-3-(3-cyclopropyl-4-(6-(oxetan-3-ylamino)quinoxalin-2-yl)-1H-pyrazol-1-yl)cyclobutyl)propyl)amino)-2-(2,6-dioxopiperidin-3-yl)isoindoline-1,3-dione]				
7.00 to 8.00	> 8.00	6.00 to 7.00	> 8.00			O=C1CCC(N2C(=O)c3ccc(NCCC[C@H]4C[C@H](n5cc(-c6cnc7ccc(N8CCN(CC(F)(F)F)CC8)cc7n6)cn5)C4)cc3C2=O)C(=O)N1 (stereo partly drawn) [GS-587, 2-(2,6-Dioxopiperidin-3-yl)-5-((3-(trans-3-(4-(7-(4-(2,2,2-trifluoroethyl)piperazin-1-yl)quinoxalin-2-yl)-1H-pyrazol-1-yl)cyclobutyl)propyl)amino)isoindoline-1,3-dione]				
7.00 to 8.00	> 8.00	7.00 to 8.00	> 8.00			Cc1cccc(-c2cn([C@H]3C[C@H](CNc4ccc5c(c4)C(=O)N(C4CCC(=O)NC4=O)C5=O)C3)nc2C2CC2)n1 (stereo partly drawn) [GS-589, 5-(((trans-3-(3-Cyclopropyl-4-(6-methylpyridin-2-yl)-1H-pyrazol-1-yl)cyclobutyl)methyl)amino)-2-(2,6-dioxopiperidin-3-yl)isoindoline-1,3-dione]				
7.00 to 8.00	> 8.00	6.00 to 7.00	7.00 to 8.00			Cc1cccc(-c2cn([C@H]3C[C@H](CCCNc4ccc5c(c4)C(=O)N(C4CCC(=O)NC4=O)C5=O)C3)nc2C2CC2)n1 (stereo partly drawn) [GS-592, 5-((3-(trans-3-(3-Cyclopropyl-4-(6-methylpyridin-2-yl)-1H-pyrazol-1-yl)cyclobutyl)propyl)amino)-2-(2,6-dioxopiperidin-3-yl)isoindoline-1,3-dione]				
				> 8.00	6.00 to 7.00	O=C1CCC(N2C(=O)c3ccc(NCCC[C@H]4C[C@H](n5cc(-c6cnc7ccc(N8CCN(CC(F)(F)F)CC8)cc7n6)cn5)C4)cc3C2=O)C(=O)N1 (stereo partly drawn) [GS-593, 2-(2,6-Dioxopiperidin-3-yl)-5-((3-(trans-3-(4-(7-(4-(2,2,2-trifluoroethyl)piperazin-1-yl)quinoxalin-2-yl)-1H-pyrazol-1-yl)cyclobutyl)propyl)amino)isoindoline-1,3-dione]				
7.00 to 8.00	> 8.00	6.00 to 7.00	> 8.00			CN1CC2CC1CN2c1ccc2ncc(-c3cn([C@H]4C[C@H](CCCNc5ccc6c(c5)C(=O)N(C5CCC(=O)NC5=O)C6=O)C4)nc3C3CC3)nc2c1 (stereo partly drawn) [GS-594, 5-((3-(trans-3-(3-Cyclopropyl-4-(7-((1R,4R)-5-methyl-2,5-diazabicyclo[2.2.1]heptan-2-yl)quinoxalin-2-yl)-1H-pyrazol-1-yl)cyclobutyl)propyl)amino)-2-(2,6-dioxopiperidin-3-yl)isoindoline-1,3-dione]				
6.00 to 7.00	7.00 to 8.00	6.00 to 7.00	7.00 to 8.00			O=C1CCC(N2C(=O)c3ccc(NC[C@H]4C[C@H](n5cc(-c6ccccn6)c(C6CC6)n5)C4)cc3C2=O)C(=O)N1 (stereo partly drawn) [GS-595, 5-(((trans-3-(3-Cyclopropyl-4-(pyridin-2-yl)-1H-pyrazol-1-yl)cyclobutyl)methyl)amino)-2-(2,6-dioxopiperidin-3-yl)isoindoline-1,3-dione]				
6.00 to 7.00	6.00 to 7.00	< 6.00	6.00 to 7.00			O=C1CCC(N2C(=O)c3ccc(NC[C@H]4C[C@H](n5cc(-c6cnccn6)c(C6CC6)n5)C4)cc3C2=O)C(=O)N1 (stereo partly drawn) [GS-596, 5-(((trans-3-(3-Cyclopropyl-4-(pyrazin-2-yl)-1H-pyrazol-1-yl)cyclobutyl)methyl)amino)-2-(2,6-dioxopiperidin-3-yl)isoindoline-1,3-dione]				
< 6.00	< 6.00	< 6.00	< 6.00			CN1C(=O)CCC(N2C(=O)c3ccc(NCCC[C@H]4C[C@H](n5cc(-c6cnc7ccccc7n6)c(C6CC6)n5)C4)cc3C2=O)C1=O (stereo partly drawn) [GS-600, 5-((3-(trans-3-(3-Cyclopropyl-4-(quinoxalin-2-yl)-1H-pyrazol-1-yl)cyclobutyl)propyl)amino)-2-(1-methyl-2,6-dioxopiperidin-3-yl)isoindoline-1,3-dione]				
